Laboratory results taken from patent US20100010078A1, “METHODS OF TREATING ANDROGEN DEPENDENT PROSTATE CANCER BY ADMINISTERING AN ACTIVE PHARMACEUTICAL INGREDIENT BEING FISETIN, 3,3',4',7-TETRAHYDROXYFLAVONE OR A DERIVATIVE THEREOF, IN AN ORAL, TRANSDERMAL OR TOPICAL DOSAGE FORM” (priority 2008, published 2010).

Legend:
[1] = test system: Bad, Bax, Bcl2 and Bcl-xL; assay: Silencing of Akt by siRNA, Bcl2-family proteins in LNCaP cells; format: cell-based, human; settings: LNCaP transfected with Akt-siRNA, fisetin 40 μM, 48 h
Protocol: Silencing of Akt by Small Interfering RNA. LNCaP cells were transfected with Akt-siRNA (75 nmol) and scrambled siRNA (75 nmol) procured from Dharmacon (Lafayette, Colo.) using the Nucleofection Kit R specific for LNCaP transfection from Amaxa Biosystems (Gaithersburg, Md.). Cells were resuspended in a solution from nucleofector kit R following the manufacturer's guidelines. 100 μl of nucleofector solution R was mixed with 2×10^6 cells and siRNA. They were then transferred to the cuvette provided with the kit and were nucleofected with an Amaxa Nucleofector apparatus. Cells were transfected using the T-001 pulsing parameter and were transferred into 100-mm plates containing 37° C. prewarmed culture medium. After transfection, cells were cultured and the medium was replaced with fresh medium. Cells were treated with 40 μM fisetin for 48 h, and protein lysates were prepared. Using 2 μg of GFP we observed 70-80% transfection efficiency with this protocol.

XIAP and Smac/DIABLO = assay: Western blot, XIAP and Smac/DIABLO in LNCaP cells; format: cell-based, human; settings: fisetin 10-60 μM, 48 h
Protocol: (§1) Protein extraction and western blotting. Following the treatment of LNCaP cells with fisetin (10-60 μM; 48 h), the media was aspirated, the cells were washed with cold PBS (pH 7.4), and ice-cold lysis buffer (50 mM Tris-HCl, 150 mM NaCl, 1 mM EGTA, 1 mM EDTA, 20 mM NaF, 100 mM Na3VO4, 0.5% NP-40, 1% Triton X-100, 1 mM PMSF (pH 7.4)) with freshly added protease inhibitor cocktail (Protease Inhibitor Cocktail Set III, Calbiochem, La Jolla, Calif.) over ice for 30 min. The cells were scraped and the lysate was collected in a microfuge tube and passed through a needle to break up the cell aggregates. […]
(§2) For western blotting, 30-50 μg protein was resolved over 8-12% polyacrylamide gels and transferred to a nitrocellulose membrane. The blot was blocked in blocking buffer (5% nonfat dry milk/1% Tween 20; in 20 mM TBS, pH 7.6) for 1 hr at room temperature, incubated with appropriate monoclonal or polyclonal primary antibody in blocking buffer for 1.5 h to overnight at 4° C., followed by incubation with anti-mouse or anti-rabbit secondary antibody horseradish peroxidase conjugate obtained from Amersham Life Science Inc. and detected by chemiluminescence and autoradiography using XAR-5 film obtained from Eastman Kodak Co. (Rochester, N.Y., USA). […]

[2] = target: T1, ligand binding domain (LBD) of androgen receptor (AR) (Homo sapiens, UniProt P10275); assay: Competition with labeled AR ligand at the ligand binding domain (FIG. 3)
T1 sequence (P10275 669-900 limits assumed): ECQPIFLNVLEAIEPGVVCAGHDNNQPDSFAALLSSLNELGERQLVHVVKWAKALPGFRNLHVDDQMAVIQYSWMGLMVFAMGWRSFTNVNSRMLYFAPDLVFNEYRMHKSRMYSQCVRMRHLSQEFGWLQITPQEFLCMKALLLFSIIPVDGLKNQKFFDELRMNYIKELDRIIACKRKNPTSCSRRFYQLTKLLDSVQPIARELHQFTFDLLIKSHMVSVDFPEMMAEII

LNCaP cells [3] = assay: DNA cell cycle analysis by flow cytometry; format: cell-based, human; settings: 48 h
Protocol: DNA Cell Cycle Analysis. The LNCaP cells (50-60% confluent) were treated with fisetin (10-60 μM; 48 h) in complete medium. The cells were trypsinized thereafter, washed twice with cold PBS and centrifuged. The cell pellet was resuspended in 50 μl cold PBS to which cold methanol (450 μL) was added and the cells were incubated for 1 h at 4° C. The cells were centrifuged at 1,100 rpm for 5 minutes, pellet washed twice with cold PBS, suspended in 500 μl PBS and incubated with 5 μl RNase (20 μg/ml final concentration) for 30 min. The cells were chilled over ice for 10 min and incubated with propidium iodide (50 μg/ml final concentration) for 1 h for analysis by flow cytometry. Flow cytometry was performed with a FACScan (Becton Dickinson). A minimum of 10,000 cells per sample were collected and the DNA histograms were further analyzed by using ModiFitLT software (Verily Software House, Topsham, Me.) for cell cycle analysis.

cytochrome c = assay: Detection of cytochrome c release into cytosol; format: cell-based, human; settings: LNCaP, fisetin 10-60 μM, 48 h
Protocol: Detection of cytochrome c release. After the treatment of LNCaP cells with fisetin (10-60 μM; 48 h), the mitochondrial and cytosolic fractions were prepared according to manufacturer's instructions. After the separation of cytosolic and mitochondrial fraction, 40 μg protein was resolved over 12% polyacrylamide gels and immunoblotted with the cytochrome c and Cox-4 antibodies.

LNCaP cells [4] = assay: Apoptosis assessment by annexin-V staining; format: cell-based, human; settings: fisetin 10-60 μM, 48 h
Protocol: Apoptosis assessment by annexin-V staining. The Annexin-V-Fluos staining kit was used for the detection of apoptotic cells according to vendor's protocol. This kit uses a staining protocol in which the apoptotic cells are stained with annexin-V (green fluorescence). The LNCaP cells were grown to 70% confluency and treated with fisetin (10-60 μM) for 48 h. The fluorescence was measured by a Zeiss 410 confocal microscope (Thornwood, N.Y.). Confocal images of green annexin-FITC fluorescence were collected using 488 nm excitation light from an argon/krypton laser, a 560 nm dichroic mirror and a 514-540 nm bandpass barrier filter.

caspase-3, -8 and -9 = assay: Western blot, active caspase-3, -8 and -9 in LNCaP cells; format: cell-based, human; settings: fisetin 10-60 μM, 48 h
Protocol: as §1, §2

Bak, Bcl-xL, Bad and Bid = assay: Western blot, Bak, Bad, Bid and Bcl-xL in LNCaP cells; format: cell-based, human; settings: fisetin 10-60 μM, 48 h
Protocol: as §1, §2

[5] = test system: cyclin D1, cyclin D2 and cyclin E; assay: Western blot, cyclins in LNCaP cells; format: cell-based, human; settings: fisetin 10-60 μM, 48 h
Protocol: as §1, §2

With `O=c1c(O)c(-c2ccc(O)c(O)c2)oc2cc(O)ccc12` [fisetin, 3,3′,4′,7-tetrahydroxyflavone] the “Bad, Bax, Bcl2 and Bcl-xL protein expression in Akt-siRNA treated cells” value [1] was “augmented the increase in Bad and Bax and decrease in Bcl2 and Bcl-xL”, the “protein expression of Smac/DIABLO” value (XIAP and Smac/DIABLO) was “induction” and the “protein expression of XIAP” value (XIAP and Smac/DIABLO) was “inhibition”. For the same compound, the “competition with labeled AR ligand, interaction with LBD” value [2] was “competes with a labeled AR ligand”, the “G1 phase cell cycle distribution” value (LNCaP cells [3]; fisetin 10 μM) was 61% and the “G1 phase cell cycle distribution” value (LNCaP cells [3]; fisetin 20 μM) was 63%. The “G1 phase cell cycle distribution” value (LNCaP cells [3]; fisetin 40 μM) was 67%, the “G1 phase cell cycle distribution” value (LNCaP cells [3]; fisetin 60 μM) was 69% and the “levels of cytochrome c in the cytosol” value (cytochrome c) was “elevated dose-dependently”. The “apoptotic cells by annexin-V staining” value (LNCaP cells [4]) was “increased”, the “activation of caspase-3, -8 and -9” value (caspase-3, -8 and -9) was “dose-dependent increase” and the Bcl-xL expression (Bak, Bcl-xL, Bad and Bid) was “significant decrease”. The “protein expression of Bak, Bad and Bid” value (Bak, Bcl-xL, Bad and Bid) was “significant increase” and the “protein expression of cyclins D1, D2 and E” value [5] was “dose-dependent decrease”.
